Measured values published in publication PMC11013477, “Lycocasine A, a Lycopodium Alkaloid from Lycopodiastrum casuarinoides and Its Acid-Sensing Ion Channel 1a Inhibitory Activity” (Molecules, 2024).
Read-outs that look alike come from different tables or passages of the source.

Experiments:
[1] = target: T1, ASIC1a (Homo sapiens, UniProt P78348); conditions: read-out: IC50 ASIC1a inhibition; cited from earlier work
T1 construct: expressed in transfected cells; host or cells: HEK293T
T1 sequence (P78348 1-528): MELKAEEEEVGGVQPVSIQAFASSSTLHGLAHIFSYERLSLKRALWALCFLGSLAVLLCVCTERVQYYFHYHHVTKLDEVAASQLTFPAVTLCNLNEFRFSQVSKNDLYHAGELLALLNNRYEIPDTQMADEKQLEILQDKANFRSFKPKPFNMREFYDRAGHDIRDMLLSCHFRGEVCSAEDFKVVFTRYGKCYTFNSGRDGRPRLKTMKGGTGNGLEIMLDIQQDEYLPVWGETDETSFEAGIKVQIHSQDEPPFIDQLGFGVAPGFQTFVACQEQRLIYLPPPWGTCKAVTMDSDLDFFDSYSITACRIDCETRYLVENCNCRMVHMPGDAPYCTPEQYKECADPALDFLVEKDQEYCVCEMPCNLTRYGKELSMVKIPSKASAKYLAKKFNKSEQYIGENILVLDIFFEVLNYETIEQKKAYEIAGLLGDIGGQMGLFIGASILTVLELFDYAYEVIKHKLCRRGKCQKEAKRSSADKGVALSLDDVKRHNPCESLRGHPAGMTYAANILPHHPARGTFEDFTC

[2] = target: T1, ASIC1a; assay: Whole-cell voltage-clamp recording of ASIC1a currents in transfected HEK293T cells; type: cell-based; conditions: for inhibition at 50 µM: HEK-293T
Protocol: Cells were plated at a low density in 12-well plates 24 h prior to transfection. For transfection, Lipofectamine 3000 (Invitrogen, Thermo Fisher Scientific, Inc., Waltham, MA, USA) was utilized to introduce 300 ng of ASIC1a cDNA into adherent cells, which were then analyzed for 24–48 h post-transfection. […] Borosilicate glass micropipettes, fashioned to achieve a resistance of 2–6 MΩ, were filled with an intracellular recording solution comprising 140 mM KCl, 2 mM MgCl2, 5 mM EGTA, 5 mM NaCl, and 10 mM HEPES (adjusted to pH 7.4 with KOH). […] Current signals were amplified using a SUTTER IPA-2 amplifier, with data acquisition and analysis performed using SutterPatch 9.0 software. Data processing was carried out using GraphPad Prism version 8.0.

[3] = 50 μM, HEK293T cells transfected with ASIC1a, currents triggered by pH 6.0, holding potential −60 mV, read-out: inhibition rate of ASIC1a currents

Row | SMILES | IC50 [1] [µM] | inhibition at 50 µM [2, 3] [%] | further results
1 | COC1=C[C@@H]2[C@@H]3Cc4ccc(OC)c(O)c4[C@]2(CCN3C)CC1=O [Sinomenine] | ~1 |  | 
2 | N=C(N)NC(=O)c1nc(Cl)c(N)nc1N [Amiloride] |  | > 50 | 
3 | O=c1c(-c2ccc(O)cc2)coc2c([C@@H]3O[C@H](CO)[C@@H](O)[C@H](O)[C@H]3O)c(O)ccc12 [Puerarin] | 9.31 |  | 
4 | COc1cc2c(cc1O)[C@H](Cc1ccc(Oc3cc(C[C@@H]4NCCc5cc(OC)c(O)cc54)ccc3O)cc1)NCC2 [Lindoldhamine] | 9 |  | 
5 | CC1=C[C@H]2Cc3[nH]c(=O)ccc3[C@]3(C1)NCCC[C@H]23 [Compound 7, huperzine B] |  | < 30 | 
6 | C=CC1C2C=C(C)CC1(N(C)C)C1=C(C(=O)OC)C(=O)NC1(O)C2 (centres unmarked) [Compound 1, lycocasine A] |  |  | IC50 [2]: 48.7 ± 0.92 µM; inhibition at 50 µM ([2]; pH 6, read-out: inhibition rate of ASIC1a currents): > 50%; melting point: 187 to 189 °C
